Patent US8604068B2, “Insecticidal compositions of 2-cyanobenzene sulfonamide compounds and isomeric forms thereof having improved effect” (Bayer CropScience AG, priority 2007, dated 2013)

Tests used:
Assay type in all cases: in vivo
[1] = test system: cotton aphid (Aphis gossypii); assay: Aphis gossypii test (APHIGO), activity increase due to ammonium salts (Example B); conditions: sprayed cotton leaves; for Kill rate/% after 6 days, a.i.: no additive
Protocol: (§1) Aphis gossypii-Test (APHIGO)
(§2) For the preparation of a suitable active substance preparation, 1 part by weight of active substance is mixed with the stated quantities of solvent and emulsifier and the concentrate is diluted to the desired concentration with emulsifier-containing water. When addition of ammonium salts is necessary, these are in each case pipetted into the finished preparation solution in a concentration of 1000 ppm after dilution.
(§3) Cotton leaves (Gossypium hirsutum) which are severely infested with the cotton aphid (Aphis gossypii) are sprayed with an active substance preparation with the desired concentration.
(§4) After the desired time, the kill rate in % is determined. Here 100% means that all the aphids were killed; 0% means that no aphids were killed.

[2] = test system: cotton aphid (Aphis gossypii); assay: Aphis gossypii test (APHIGO), ammonium salts in combination with penetration enhancers (Example D); conditions: for Kill rate/% after 6 days, +AS (1000 ppm) / Kill rate/% after 6 days, +RME (1000 ppm) / Kill rate/% after 6 days, +RME + AS (each 1000 ppm) / Kill rate/% after 6 days, a.i.: Table D1; for Kill rate/% after 6 days, a.i. / Kill rate/% after 7 days, a.i.: no additive; for Kill rate/% after 7 days, +AS (1000 ppm) / Kill rate/% after 7 days, +RME (1000 ppm) / Kill rate/% after 7 days, +RME + AS (each 1000 ppm) / Kill rate/% after 7 days, a.i.: Table D2, emulsifier 1 part; for Kill rate/% after 7 days, +AS (1000 ppm): active substance 2.4 g/ha + ammonium sulfate 1000 ppm; for Kill rate/% after 7 days, +RME (1000 ppm): active substance 2.4 g/ha + rape oil methyl ester 1000 ppm; for Kill rate/% after 7 days, +RME + AS (each 1000 ppm): active substance 2.4 g/ha + rape oil methyl ester and ammonium sulfate; for Kill rate/% after 7 days, a.i.: active substance 2.4 g/ha
Protocol: as §1
as §2, with “ammonium salts, penetration enhancers or ammonium” for “ammonium”, “salts and penetration enhancers” for “salts”
as §3, §4

[3] = test system: common spider mite (Tetranychus urticae); assay: Tetranychus test (OP-resistant), activity increase due to ammonium salts (Example E); conditions: sprayed bean plants; for Kill rate/% after 6 days, +AS (1000 ppm): active substance 20 ppm + ammonium sulfate 1000 ppm; for Kill rate/% after 6 days, a.i.: active substance 20 ppm, no additive
Protocol: (§5) Tetranychus-Test (OP-Resistant)
as §2
(§6) Bean plants (Phaseolus vulgaris) which are severely infested by all stages of the common spider mite (Tetranychus urticae) are treated by spraying with the active substance preparation in the desired concentration.
(§7) After the desired time, the kill rate in % is determined. here 100% means that all the spider mites were killed; 0% means that no spider mites were killed.

[4] = test system: green peach aphid (Myzus persicae); assay: Myzus persicae test (MYZUPE), ammonium salts in combination with penetration enhancers (Example C); conditions: for Kill rate/% after 6 days, +AS (1000 ppm) / Kill rate/% after 6 days, +RME (1000 ppm) / Kill rate/% after 6 days, +RME + AS (each 1000 ppm) / Kill rate/% after 6 days, a.i.: Table C1; for Kill rate/% after 6 days, a.i. / Kill rate/% after 7 days, a.i.: no additive; for Kill rate/% after 7 days, +AS (1000 ppm) / Kill rate/% after 7 days, +RME (1000 ppm) / Kill rate/% after 7 days, +RME + AS (each 1000 ppm) / Kill rate/% after 7 days, a.i.: Table C2, emulsifier 1 part; for Kill rate/% after 7 days, +AS (1000 ppm): active substance 60 g/ha + ammonium sulfate 1000 ppm; for Kill rate/% after 7 days, +RME (1000 ppm): active substance 60 g/ha + rape oil methyl ester 1000 ppm; for Kill rate/% after 7 days, +RME + AS (each 1000 ppm): active substance 60 g/ha + rape oil methyl ester and ammonium sulfate; for Kill rate/% after 7 days, a.i.: active substance 60 g/ha
Protocol: (§8) Myzus persicae—Test (MYZUPE)
as §2, with “ammonium salts, penetration enhancers or ammonium” for “ammonium”, “salts and penetration enhancers” for “salts”
Paprika plants (Capsicum annuum) which are severely infested with the green peach aphid (Myzus persicae) are treated by spraying with the active substance preparation in the desired concentration.
(§9) After the desired time, the kill rate in % is determined. Here 100% means that all the animals were killed; 0% means that no animals were killed.

[5] = test system: common spider mite (Tetranychus urticae); assay: Tetranychus test (OP-resistant), ammonium salts in combination with penetration enhancers (Example F); conditions: for Kill rate/% after 6 days, a.i.: no additive
Protocol: as §5
as §2, with “ammonium salts, penetration enhancers or ammonium” for “ammonium”, “salts and penetration enhancers” for “salts”
as §6, §7

[6] = test system: green peach aphid (Myzus persicae); assay: Myzus persicae test (MYZUPE), activity increase due to ammonium salts (Example A); conditions: sprayed paprika plants; for Kill rate/% after 6 days, a.i.: no additive
Protocol: as §8, §2
Paprika plants (Capsicum annuum) which are severely infested by the green peach aphid (Myzus persicae) are treated by spraying with the active substance preparation in the desired concentration.
as §9

[7] = active substance 4 ppm + ammonium sulfate 1000 ppm
[8] = active substance 4 ppm + rape oil methyl ester 1000 ppm
[9] = active substance 4 ppm + rape oil methyl ester and ammonium sulfate
[10] = active substance 20 ppm + ammonium sulfate 1000 ppm
[11] = active substance 20 ppm + rape oil methyl ester 1000 ppm
[12] = active substance 20 ppm + rape oil methyl ester and ammonium sulfate
[13] = active substance 0.8 ppm + ammonium sulfate 1000 ppm
[14] = active substance 0.8 ppm + rape oil methyl ester 1000 ppm
[15] = active substance 0.8 ppm + rape oil methyl ester and ammonium sulfate

C=CCNS(=O)(=O)c1cccc(OC)c1C#N [Example 44]
Kill rate/% after 6 days, +AS (1000 ppm) [1, 7]: 25%
Kill rate/% after 6 days, a.i. ([1]; active substance 4 ppm): 5%
Kill rate/% after 6 days, +AS (1000 ppm) [2, 7]: 25%
Kill rate/% after 6 days, +RME (1000 ppm) [2, 8]: 45%
Kill rate/% after 6 days, +RME + AS (each 1000 ppm) [2, 9]: 55%
Kill rate/% after 6 days, a.i. ([2]; active substance 4 ppm): 5%
Kill rate/% after 6 days, +AS (1000 ppm) [3]: 70%
Kill rate/% after 6 days, a.i. [3]: 40%
Kill rate/% after 6 days, +AS (1000 ppm) [4, 7]: 15%
Kill rate/% after 6 days, +RME (1000 ppm) [4, 8]: 20%
Kill rate/% after 6 days, +RME + AS (each 1000 ppm) [4, 9]: 30%
Kill rate/% after 6 days, a.i. ([4]; active substance 4 ppm): 10%
Kill rate/% after 6 days, +AS (1000 ppm) [4, 10]: 70%
Kill rate/% after 6 days, +RME (1000 ppm) [4, 11]: 85%
Kill rate/% after 6 days, +RME + AS (each 1000 ppm) [4, 12]: 98%
Kill rate/% after 6 days, a.i. ([4]; active substance 20 ppm): 85%

COc1cccc(S(=O)(=O)NC2CC2)c1C#N [Example 83]
Kill rate/% after 7 days, +AS (1000 ppm) [2]: 55%
Kill rate/% after 7 days, +RME (1000 ppm) [2]: 30%
Kill rate/% after 7 days, +RME + AS (each 1000 ppm) [2]: 85%
Kill rate/% after 7 days, a.i. [2]: 10%
Kill rate/% after 7 days, +AS (1000 ppm) [4]: 0%
Kill rate/% after 7 days, +RME (1000 ppm) [4]: 10%
Kill rate/% after 7 days, +RME + AS (each 1000 ppm) [4]: 75%
Kill rate/% after 7 days, a.i. [4]: 0%

N#Cc1ccccc1S(N)(=O)=O [Example 226]
Kill rate/% after 6 days, +AS (1000 ppm) [2, 13]: 0%
Kill rate/% after 6 days, +RME (1000 ppm) [2, 14]: 20%
Kill rate/% after 6 days, +RME + AS (each 1000 ppm) [2, 15]: 35%
Kill rate/% after 6 days, a.i. ([2]; active substance 0.8 ppm): 0%
Kill rate/% after 6 days, +AS (1000 ppm) [2, 7]: 20%
Kill rate/% after 6 days, +RME (1000 ppm) [2, 8]: 35%
Kill rate/% after 6 days, +RME + AS (each 1000 ppm) [2, 9]: 55%
Kill rate/% after 6 days, a.i. ([2]; active substance 4 ppm): 20%
Kill rate/% after 6 days, +AS (1000 ppm) [5, 10]: 70%
Kill rate/% after 6 days, +RME (1000 ppm) [5, 11]: 60%
Kill rate/% after 6 days, +RME + AS (each 1000 ppm) [5, 12]: 90%
Kill rate/% after 6 days, a.i. ([5]; active substance 20 ppm): 50%
Kill rate/% after 6 days, +AS (1000 ppm) [4, 10]: 10%
Kill rate/% after 6 days, +RME (1000 ppm) [4, 11]: 25%
Kill rate/% after 6 days, +RME + AS (each 1000 ppm) [4, 12]: 50%
Kill rate/% after 6 days, a.i. ([4]; active substance 20 ppm): 10%

COc1cccc(S(=O)(=O)NCc2ccccc2)c1C#N [Example 40]
Kill rate/% after 7 days, +AS (1000 ppm) [4]: 0%
Kill rate/% after 7 days, +RME (1000 ppm) [4]: 40%
Kill rate/% after 7 days, +RME + AS (each 1000 ppm) [4]: 50%
Kill rate/% after 7 days, a.i. [4]: 0%

COc1cccc(S(=O)(=O)N(C)C)c1C#N [Example 215]
Kill rate/% after 7 days, +AS (1000 ppm) [4]: 20%
Kill rate/% after 7 days, +RME (1000 ppm) [4]: 40%
Kill rate/% after 7 days, +RME + AS (each 1000 ppm) [4]: 75%
Kill rate/% after 7 days, a.i. [4]: 0%

C=CCN(C)S(=O)(=O)c1cccc(OC)c1C#N [Example 225]
Kill rate/% after 6 days, +AS (1000 ppm) [1, 10]: 75%
Kill rate/% after 6 days, a.i. ([1]; active substance 20 ppm): 35%
Kill rate/% after 6 days, +AS (1000 ppm) [3]: 80%
Kill rate/% after 6 days, a.i. [3]: 20%
Kill rate/% after 6 days, +AS (1000 ppm) [4, 7]: 0%
Kill rate/% after 6 days, +RME (1000 ppm) [4, 8]: 5%
Kill rate/% after 6 days, +RME + AS (each 1000 ppm) [4, 9]: 35%
Kill rate/% after 6 days, a.i. ([4]; active substance 4 ppm): 0%

COc1cccc2c1C(N)=NS2(=O)=O [Example 45-B]
Kill rate/% after 6 days, +AS (1000 ppm) [6, 7]: 60%
Kill rate/% after 6 days, a.i. ([6]; active substance 4 ppm): 35%

C#CCN1C(=N)c2c(OC)cccc2S1(=O)=O [Example 42-A]
Kill rate/% after 6 days, +AS (1000 ppm) [1, 7]: 55%
Kill rate/% after 6 days, a.i. ([1]; active substance 4 ppm): 15%
Kill rate/% after 6 days, +AS (1000 ppm) [1, 10]: 98%
Kill rate/% after 6 days, a.i. ([1]; active substance 20 ppm): 30%
Kill rate/% after 6 days, +AS (1000 ppm) [6, 10]: 45%
Kill rate/% after 6 days, a.i. ([6]; active substance 20 ppm): 0%
Kill rate/% after 6 days, +AS (1000 ppm) [5, 13]: 30%
Kill rate/% after 6 days, +RME (1000 ppm) [5, 14]: 45%
Kill rate/% after 6 days, +RME + AS (each 1000 ppm) [5, 15]: 80%
Kill rate/% after 6 days, a.i. ([5]; active substance 0.8 ppm): 50%
Kill rate/% after 6 days, +AS (1000 ppm) [5, 7]: 50%
Kill rate/% after 6 days, +RME (1000 ppm) [5, 8]: 75%
Kill rate/% after 6 days, +RME + AS (each 1000 ppm) [5, 9]: 95%
Kill rate/% after 6 days, a.i. ([5]; active substance 4 ppm): 70%
Kill rate/% after 6 days, +AS (1000 ppm) [4, 10]: 45%
Kill rate/% after 6 days, +RME (1000 ppm) [4, 11]: 90%
Kill rate/% after 6 days, +RME + AS (each 1000 ppm) [4, 12]: 98%
Kill rate/% after 6 days, a.i. ([4]; active substance 20 ppm): 0%

COc1cccc(S(=O)(=O)NC(C)C)c1C#N [Example 41]
Kill rate/% after 7 days, +AS (1000 ppm) [2]: 80%
Kill rate/% after 7 days, +RME (1000 ppm) [2]: 10%
Kill rate/% after 7 days, +RME + AS (each 1000 ppm) [2]: 93%
Kill rate/% after 7 days, a.i. [2]: 50%

C#CCNS(=O)(=O)c1cccc(OC)c1C#N [Example 42]
Kill rate/% after 6 days, +AS (1000 ppm) [6, 10]: 20%
Kill rate/% after 6 days, a.i. ([6]; active substance 20 ppm): 5%
Kill rate/% after 6 days, +AS (1000 ppm) [4, 10]: 20%
Kill rate/% after 6 days, +RME (1000 ppm) [4, 11]: 25%
Kill rate/% after 6 days, +RME + AS (each 1000 ppm) [4, 12]: 70%
Kill rate/% after 6 days, a.i. ([4]; active substance 20 ppm): 5%
Kill rate/% after 6 days, +AS (1000 ppm) ([4]; active substance 100 ppm + ammonium sulfate 1000 ppm): 80%
Kill rate/% after 6 days, +RME (1000 ppm) ([4]; active substance 100 ppm + rape oil methyl ester 1000 ppm): 99%
Kill rate/% after 6 days, +RME + AS (each 1000 ppm) ([4]; active substance 100 ppm + rape oil methyl ester and ammonium sulfate): 100%
Kill rate/% after 6 days, a.i. ([4]; active substance 100 ppm): 75%
